Assay results from ChEMBL document CHEMBL6103573, “Discovery of novel thienopyridine indole derivatives as inhibitors of tubulin polymerization targeting the colchicine-binding site with potent anticancer activities” (Eur J Med Chem, 2025).
pIC50: −log10 of the molar value. Activity calls are given as the source filed them. The calls are words filed in the database; no cut-off is given here.

Columns and labels:
MDA-MB-231 = assay: Antiproliferative activity against human MDA-MB-231 cells assessed as inhibition of cell proliferation incubated for 48 hrs by MTT assay; assay type: functional, cell-based; conditions: MDA-MB-231, 48 h
NCI-H1975 = assay: Antiproliferative activity against human NCI-H1975 cells assessed as inhibition of cell proliferation incubated for 48 hrs by MTT assay; assay type: functional, cell-based; conditions: NCI-H1975, 48 h
HGC-27 [1] = assay: Antiproliferative activity against human HGC-27 cells assessed as reduction in cell viability incubated for 48 hrs by MTT assay; assay type: functional, cell-based; conditions: dose 0.25-10 nmol/L
MGC-803 [2] = assay: Antiproliferative activity against human MGC-803 cells assessed as cell viability at 1 to 2 nmol/L incubated for 48 hrs by MTT assay (reference value: 92 %); assay type: functional; conditions: dose 1-2 nmol/L, at 1 to 2 nM
[3] = biological target: T1, Tubulin beta (Homo sapiens) (UniProt P68371+Q9H4B7+Q13509+P04350+Q3ZCM7+P07437+Q13885+Q9BVA1+Q9BUF5+A6NNZ2); assay: Competitive binding affinity to beta-tubulin colchicine binding site in human HGC-27 cells assessed as inhibition of EBI-beta-tubulin adduct band formation by measuring reduction in adduct band intensity preincubated for 2 hrs followed by EBI addition and measured after 2 hrs by Western blotting analysis; assay type: cell-based; conditions: dose 0.1-1 µmol/L, time 4.0 hrs
[4] = biological target: T1, Tubulin beta (Homo sapiens); assay: Competitive binding affinity to beta-tubulin colchicine binding site in human HGC-27 cells assessed as inhibition of EBI-beta-tubulin adduct band formation at 1 umol/L preincubated for 2 hrs followed by EBI addition and measured after 2 hrs by Western blotting analysis; assay type: cell-based; conditions: dose 1.0 µmol/L, time 4.0 hrs
Tubulin (Homo sapiens) = Tubulin (Homo sapiens) (UniProt P68371+Q9H4B7+P0DPH7+P68366+Q13509+Q71U36+P04350+Q3ZCM7+P07437+P68363+Q9BQE3+Q6PEY2+Q13885+Q9BVA1+Q9BUF5); assay: Disruption of microtubule network in human MGC-803 cells assessed as reduction in filamentous microtubule structure formation at 0.25 to 2.0 nmol/L incubated for 24 hrs by DAPI staining based fluorescence microscopic analysis; assay type: cell-based; conditions: dose 0.25-2 nmol/L
MGC-803 [5] = assay: Inhibition of colony formation in human MGC-803 cells at 0.5 nmol/L incubated for 7 days by crystal violet staining based colony formation assay relative to control; assay type: functional; conditions: MGC-803, 168 h, time 7 day
MGC-803 [6] = assay: Inhibition of colony formation in human MGC-803 cells incubated for 7 days by crystal violet staining based colony formation assay; assay type: functional, cell-based; conditions: dose 0.1-0.5 nmol/L, time 7.0 day
MGC-803 [7] = assay: Induction of cell cycle arrest in human MGC-803 cells assessed as accumulation of cells at G2/M phase incubated for 24 hrs by RNase A/propidium iodide staining based flow cytometric analysis; assay type: functional; conditions: dose 0.25-2 nmol/L
MGC-803 [8] = assay: Induction of cell cycle arrest in human MGC-803 cells assessed as downregulation of Cdc2 phosphorylation at Tyr15 residue measured after 48 hrs by Western blot analysis; assay type: functional, cell-based; conditions: dose 0.25-2 nmol/L
HGC-27 [9] = assay: Induction of cell cycle arrest in human HGC-27 cells assessed as downregulation of Cdc2 phosphorylation at Tyr15 residue measured after 48 hrs by Western blot analysis; assay type: functional, cell-based; conditions: dose 0.25-2 nmol/L
MGC-803 [10] = assay: Induction of apoptosis in human MGC-803 cells assessed as appearance of round cells at 0.25 to 2.0 nmol/L incubated for 48 hrs by bright field microscopic analysis; assay type: functional, cell-based; conditions: dose 0.25-2 nmol/L
HGC-27 [11] = assay: Induction of apoptosis in human HGC-27 cells assessed as appearance of bright cells at 0.25 to 2.0 nmol/L incubated for 48 hrs by bright field microscopic analysis; assay type: functional, cell-based; conditions: dose 0.25-2 nmol/L
HGC-27 [12] = assay: Induction of apoptosis in human HGC-27 cells assessed as appearance of ruptured cells at 0.25 to 2.0 nmol/L incubated for 48 hrs by bright field microscopic analysis; assay type: functional, cell-based; conditions: dose 0.25-2 nmol/L
HGC-27 [13] = assay: Induction of apoptosis in human HGC-27 cells assessed as increase in dead to live cells ratio at 0.25 to 2.0 nmol/L incubated for 48 hrs by Calcein-AM/PI staining based analysis; assay type: functional, cell-based; conditions: dose 0.25-2 nmol/L
HGC-27 [14] = assay: Induction of apoptosis in human HGC-27 cells assessed as increase in cleaved Caspase-7 expression at 0.25 to 2.0 nmol/L incubated for 48 hrs by Western blotting analysis; assay type: functional, cell-based; conditions: dose 0.25-2 nmol/L
MGC-803 [15] = assay: Induction of apoptosis in human MGC-803 cells assessed as increase in cleaved Caspase-9 expression at 0.25 to 2.0 nmol/L incubated for 48 hrs by Western blotting analysis; assay type: functional, cell-based; conditions: dose 0.25-2 nmol/L
MGC-803 [16] = assay: Induction of apoptosis in human MGC-803 cells assessed as early apoptotic cells at 0.25 nmol/L incubated for 48 hrs by Annexin V-FITC/propidium iodide staining based flow cytometry analysis (reference value: 0.83 %); assay type: functional
MGC-803 [17] = assay: Induction of apoptosis in human MGC-803 cells assessed as late apoptotic cells at 0.25 nmol/L incubated for 48 hrs by Annexin V-FITC/propidium iodide staining based flow cytometry analysis (reference value: 2.22 %); assay type: functional
MGC-803 [18] = assay: Induction of apoptosis in human MGC-803 cells assessed as late apoptotic cells at 1.0 nmol/L incubated for 48 hrs by Annexin V-FITC/propidium iodide staining based flow cytometry analysis (reference value: 2.22 %); assay type: functional
HGC-27 [19] = assay: Induction of apoptosis in human HGC-27 cells assessed as late apoptotic cells at 1.0 nmol/L incubated for 48 hrs by Annexin V-FITC/propidium iodide staining based flow cytometry analysis (reference value: 3.70 %); assay type: functional
MGC-803 [20] = assay: Induction of apoptosis in human MGC-803 cells assessed as total apoptotic rate at 2 nmol/L incubated for 48 hrs by Annexin V-FITC/propidium iodide staining based flow cytometry analysis relative to control; assay type: functional
MGC-803 [21] = assay: Anti-migratory activity against human MGC-803 cells assessed as decrease in cell migration at 1 nmol/L measured after 24 hrs by wound healing assay relative to control; assay type: functional; design: scale not given: the % may be the effect or the level left
HGC-27 [22] = assay: Anti-migratory activity against human HGC-27 cells assessed as reduction in wound healing area measured after 24 hrs by wound healing assay; assay type: functional, cell-based; conditions: dose 0.5-1 nmol/L
HUVEC [23] = assay: Anti-vascular activity in HUVEC cells assessed as reduction in width of tubular network incubated for 5 hrs by Matrigel based inverted microscopic analysis; assay type: functional, cell-based; conditions: Homo sapiens, dose 0.5-2 nmol/L
HUVEC [24] = assay: Anti-vascular activity in HUVEC cells assessed as reduction in capillary-like tubules with multi-center junctions incubated for 5 hrs by Matrigel based inverted microscopic analysis; assay type: functional, cell-based; conditions: Homo sapiens, dose 0.5-2 nmol/L
[25] = Toxicity in female BALB/c-nu nude mouse xenografted with human MGC-803 cells assessed as change in heart morphology at 5 mg/kg, po administrated every other day for 11 times and measured after 21 days by hematoxylin and eosin staining based analysis; assay type: organism-based; conditions: in vivo, 504 h, time 21 day
[26] = Toxicity in female BALB/c-nu nude mouse xenografted with human MGC-803 cells assessed as change in liver morphology at 5 mg/kg, po administrated every other day for 11 times and measured after 21 days by hematoxylin and eosin staining based analysis; assay type: organism-based; conditions: in vivo, 504 h, time 21 day
[27] = Toxicity in female BALB/c-nu nude mouse xenografted with human MGC-803 cells assessed as change in kidney morphology at 5 mg/kg, po administrated every other day for 11 times and measured after 21 days by hematoxylin and eosin staining based analysis; assay type: organism-based; conditions: in vivo, 504 h, time 21 day
[28] = biological target: T1, Tubulin beta (Homo sapiens); assay: Competitive binding affinity to beta-tubulin colchicine binding site in human MGC-803 cells assessed as reduction in EBI-beat tubulin adduct to beta-tubulin ratio preincubated for 2 hrs followed by EBI addition and measured after 2 hrs by Western blotting analysis; assay type: cell-based; conditions: dose 0.1-1 µmol/L, time 4.0 hrs

CN(c1ccc2c(ccn2C)c1)c1nc(N2CCCC2)nc2sccc12
pIC50 (MDA-MB-231): 8.59
pIC50 (NCI-H1975): 8.53
Activity (HGC-27 [1]): Dose-dependent-effect
Activity (MGC-803 [2]): 39%
Activity [3]: Dose-dependent-effect
Activity [4]: Active; Stronger Affinity Observed
Activity (Tubulin (Homo sapiens)): Active
inhibition at 0.0005 µM (MGC-803 [5]): > 90%
inhibition (MGC-803 [6]): Dose-dependent-effect
Activity (MGC-803 [7]): Dose-dependent-effect
Activity (MGC-803 [8]): Dose-dependent-effect
Activity (HGC-27 [9]): Dose-dependent-effect
Activity (MGC-803 [10]): Active
Activity (HGC-27 [11]): Active
Activity (HGC-27 [12]): Active
Activity (HGC-27 [13]): Active
Activity (HGC-27 [14]): Active
Activity (MGC-803 [15]): Active
Activity (MGC-803 [16]): 1.28%
Activity (MGC-803 [17]): 3.42%
Activity (MGC-803 [18]): 3.78%
Activity (HGC-27 [19]): 3.98%
Activity (MGC-803 [20]): 63%
Activity (MGC-803 [21]): 24%
Activity (HGC-27 [22]): Dose-dependent-effect
Activity (HUVEC [23]): Dose-dependent-effect
Activity (HUVEC [24]): Dose-dependent-effect
Activity [25]: Non-toxic
Activity [26]: Non-toxic
Activity [27]: Non-toxic
Activity [28]: Dose-dependent-effect
